This is an account of results in patent publication US4695545A, “Culture and process for producing A41030 antibiotics” (Eli Lilly and Company, priority 1984, dated 1987).

A value given as a limit tells only on which side of the number the result lay.

Broadly, the MIC is the lowest concentration found to suppress growth. The low end stands for inhibition by little substance, the high end for a need for much substance.

The test system of one series is Peptococcus prevoti. The series is described as follows: MIC anaerobic bacteria, agar-dilution. As to conditions: Peptococcus prevoti 1281. It counts as cell-based.
The next series concerns Clostridium perfringens. It is filed as cell-based. As to conditions: Clostridium perfringens 81; agar-dilution.
Series [1] deals with Bacteroides melaninogenicus. As to the kind of experiment: MIC anaerobic bacteria, agar-dilution. The settings on record: Bacteroides melaninogenicus 2736. It is filed as cell-based.
In a further series the test system is Citrobacter freundii. As to the kind of experiment: MIC aerobic bacteria, standard agar-dilution assay. As to conditions: Citrobacter freundii CF17, 24 hours. It is filed as cell-based.
The next series relates to Clostridium septicum. As to the kind of experiment: MIC anaerobic bacteria, agar-dilution. It counts as cell-based. As to conditions: Clostridium septicum 1128.
A further series can be described thus: Solubility in solvents. It is filed as physicochemical. As to conditions: qualitative. From the text:
As many as seven antibiotic factors are recovered from the fermentation and are obtained as a mixture, the A41030 complex. It will be recognized that the ratio of the factors in the A41030 complex will vary, depending upon the fermentation conditions used. The individual factors A, B, C, D, E, F, and G are separated and isolated as individual compounds, as hereinafter described.

The subject of series [2] is Peptostreptococcus intermedius. The series is described as follows: MIC anaerobic bacteria, agar-dilution. It is filed as cell-based. The settings on record: Peptostreptococcus intermedius 1264.

In the case of A41030 factor B, the MIC in the series on Peptococcus prevoti is no more than 0.25 µg/mL; in the series on Clostridium perfringens it was 0.5 µg/mL; in series [1], 4 µg/mL; against Citrobacter freundii it was 128 µg/mL; against Clostridium septicum, 4 µg/mL; in series [2] it was 0.5 µg/mL. Besides, the “solubility (solvents)” value in “Solubility in solvents” is reported as “soluble in the same solvents as factor A”.
